In one assay the test system is calcium channel. In words: Whole-cell patch clamp, Cav currents in DRG neurons. Format: cell-based, rat. To be noted: 20 μM ISTX-I, 150 ms step depolarization to +10 mV from −90 mV, Ba2+ as charge carrier. Here is the method:
(§1) Rat DRG cells were acutely dissociated from adult Sprague-Dawley rats[30]. Briefly, adult rats of either sex with body weights of approximately 200 g were killed by decapitation. The dorsal root ganglia were isolated quickly from the spinal cord and then transferred into Dulbecco’s modified Eagle’s medium (DMEM) containing trypsin I (0.15 mg/mL) and collagenase II (0.3 mg/mL) for incubation with an oscillation frequency of 200 rpm at 37 °C for 20 min. The trypsin inhibitor II-S (1 mg/mL) was added to terminate the reaction. […]
(§2) DRG neurons with a large diameter (>[…]) and those with a relatively small diameter (<[…]) were chosen by measuring TTX-s and TTX-r currents, respectively. […] Potassium, calcium, and sodium currents were recorded in experimental cells using whole-cell patch-clamp recordings at room temperature, which were performed with an HEK EPC10 patch-clamp amplifier. […] Experimental data were acquired and analyzed using the programs patch master and Sigmaplot 9.0 (Sigma, USA). […]
(§3) Currents were recorded from experimental cells using whole-cell patch clamptechnique at room temperature (22–25 °C). […]
25, MgCl2 12, HEPES 10, and D-glucose 10 (pH 7.2). Calcium channel currents were measured using Ba2+ as the charge carrier. […]

The subject of a further assay is potassium channel. In words: Whole-cell patch clamp, Kv currents in DRG neurons. Format: cell-based, rat. To be noted: 20 μM ISTX-I, 500 ms depolarized potential of +10 mV. Here is the method: as §1, §2, §3
(pH 7.4). K+ currents were recorded using an internal solution containing the followings (in mM): KCl 140, MgCl2 2.5, HEPES 10, and EGTA 11 (pH 7.2). […]

For the next assay, the system named is sodium channels. In words: Selectivity and mode of action on sodium channels, summary statements. Format: cell-based. The protocol: as §1, with “reaction. The isolated DRG cells were split into 35 mm culture dishes with DMEM solution containing 10% fetal bovine serum (FBS) and were incubated in a CO2 incubator (5% CO2, 95% air, 37 °C) for 1–4 h before the patch-clamp experiment.” for “reaction.”
as §2, §3

Entries after “also recorded” stand apart in the source; their conditions may differ. Bridge positions count the residues as written; N and C are the ends. Ends that are not written are not given here.

On to “LCSENGDCAADECCVDTVFEGDMVTRSCEKTTGNFTECPGLTPIA (disulfide 2-14, 8-28, 13-38) [ISTX-I]”, for which the “effect on calcium channels” value with calcium channel is recorded as “no obvious effects; also recorded: No effects were detected”. In addition, in the assay with potassium channel, the “effect on potassium channels” value is “no obvious effects; also recorded: No effects were detected”. Also, in the assay on sodium channels, the “shift of I-V and G-V curves upon inhibition of sodium channels (summary)” value was “without any shifts of the I-V and G-V curves”; the “sodium channel subtype selectivity (in words)” value is reported as “not other sodium channel subtypes; also recorded: specific activity on Nav1.7 subtypes; also recorded: subtype-selective inhibitor of Nav1.7”.

These data come from PMC4942781, “A sodium channel inhibitor ISTX-I with a novel structure provides a new hint at the evolutionary link between two toxin folds” (Scientific Reports, 2016).
